# Entries after “also recorded” stand apart in the source; their conditions may differ.
# Experiments:
# A549 cells [1] = experiment: MTT cytotoxicity assay, A549; format: cell-based, human; conditions: Homo sapiens, A549; MTT, 24 h incubation; read-out: IC50 µM ± SD against A549
# Excerpt: A549 cell line (lung carcinoma from human) (European Collection of Cell Culture) and HT-29 cell line (colorectal adenocarcinoma from human) (American Type Culture Collection) were chosen to evaluate the cytotoxicity of novel compounds.
# (§1) The MTT assay was used to evaluate cell metabolic activity. The test principle is based on the determination of cell viability by measuring the metabolic activity in mitochondria. Enzymatically active mitochondria reduce the water-soluble MTT (3-(4,5-dimethylthiazol-2-yl)-2,5 diphenyltetrazoliumbromide) to blue–violet insoluble formazan. The number of viability cells is proportional to the colour intensity determined by photometric measurements (an analytical wavelength 570 nm) after dissolving the formazan in Dimethylsulfoxide (DMSO) (Serva) and Sorensen’s glycine buffer. MTT (Sigma Aldrich) was dissolved in Phosphate Buffered Saline (PBS) (PAN-Biotech) at a concentration of 0.5 mg/mL. Sorensen’s glycine buffer is made of 0.1 M glycine and 0.1 M NaCl, at pH 10.5. Studied compounds were dissolved in DMSO in order to receive stock solutions.
# (§2) For the assay, cells were seeded into 96-well plates at density 10^4 cells per well and cultured for 24 h at 37 °C and 5% CO2. Then medium was removed, and cells were exposed to the 100 µL of the compound solutions over a range of concentrations (final DMSO concentration was below 0.2%) or nothing but culture medium (blank control). Pure DMSO was used as a positive control. After 24 h of incubation with the compound solutions, medium was removed and 50 µL of the MTT solution was added to each well and incubated in the dark for additional 2 h at 37 °C. Then the MTT solution was carefully removed and 100 µL of DMSO was added. Plates were incubated for 10 min at room temperature. Finally, 5 µL of Sorensen Buffer was added to each well. Plate was swayed, and the absorbance was measured by using microplate reader (Synergy H1, BioTek, Winooski, VT, USA) at a wavelength of 570 nm. The cell viability was expressed as a percentage of the control values (blank). The experiments were done in triplicate.
# EA.hy926 cells = experiment: MTT cytotoxicity assay, EA.hy926; format: cell-based, human; conditions: Homo sapiens, EA.hy 926; MTT, 24 h incubation; read-out: IC50 µM ± SD against EA.hy926
# Excerpt: The EA.hy926 cells (the human umbilical vein, somatic cell hybrid) (American Type Culture Collection) are immortalized human umbilical vein endothelial cells. They have morphological, phenotypic and functional characteristics of human endothelial cells, without the limited lifespan. This cell line has been considered as a good model for anticancer drug screening and was chosen to evaluate the endothelial cytotoxicity of novel compounds.
# as §1, §2
# PARP-1 = experiment: Western blot of PARP-1 cleavage, A549; format: cell-based, human; conditions: A549, 24 h, IC50 and 1/2IC50
# Description: Then, cells were treated with chosen compounds. After 24 h of incubation, monolayer and supernatant were harvested and washed in cold PBS. Cells were centrifuged—monolayer at 1200 rpm for 10 min, supernatant 3500 rpm for 10 min. Pellets were dissolved in RIPA Lysis and Extraction buffer (Bio-Rad) containing Phosphatase Inhibitor Cocktail 3 (Sigma Aldrich) and Protease Inhibitor Cocktail (Sigma Aldrich). Samples were incubated in ice for 30 min and mixed every 10 min. Then, samples were centrifuged at 12,000 rpm for 25 min. Protein concentration in supernatants was measured in triplicate using a Protein Assay (Bio-Rad). Proteins were separated by SDS–polyacrylamide gel electrophoresis. Separating and stacking gels were made of different ratios of water, Tris–HCl pH 6.8 and pH 8.8, 10% SDS (Sigma Aldrich), Acrylamide/bis-acrylamide (Sigma Aldrich), 10% APS (Sigma Aldrich), TEMED (Sigma Aldrich). 7.5% gels were prepared for analysis PARP-1, whereas 12% gels prepared for γ-H2AX. After separation on SDS–polyacrylamide gels, proteins were electroblotted on nitrocellulose membrane in Transfer Buffer (Glycine, Tris, Methanol). Membranes were washed in TBS/0.1% or 0.05% Tween20 solution and blocked in Tris-buffered saline with 5% of non-fated dried milk for 1 h. Membranes were then incubated overnight with primary antibodies—anti-PARP-1 (Cell Signaling Technology), anti-γ-H2A.X (Cell Signaling Technology), anti-β-actin (Cell Signaling Technology) in cold room (6 °C). After incubation, membranes well washed with TBS/Tween solution and blocked with and horseradish peroxidase-conjugated secondary antibodies (Bio-Rad) for 1 h in cold room. Protein bands were visualized using ECL™ Prime Western Blotting Detection Reagents (Sigma Aldrich) Healthcare and Carestream Kodak autoradiography GBX fixer/replenisher (Sigma Aldrich) with Developer and Replenisher (Carestream) in the dark room. Results were obtained on Autoradiography Film (Santa Cruz Biotechnology). Densitometric analysis was performed by using a software program (ImageJ). […]
# [2] = biological target: T1, hyaluronidase from bovine testes Type I-S (Bos taurus, UniProt Q2YDK3); experiment: Hyaluronidase inhibition assay (turbidimetric); format: biochemical; conditions: read-out: HYAL IC50 ± SD
# T1 construct: purchased Sigma Aldrich; host or cells: bovine testes (tissue-derived preparation)
# T1 sequence (Q2YDK3 36-553): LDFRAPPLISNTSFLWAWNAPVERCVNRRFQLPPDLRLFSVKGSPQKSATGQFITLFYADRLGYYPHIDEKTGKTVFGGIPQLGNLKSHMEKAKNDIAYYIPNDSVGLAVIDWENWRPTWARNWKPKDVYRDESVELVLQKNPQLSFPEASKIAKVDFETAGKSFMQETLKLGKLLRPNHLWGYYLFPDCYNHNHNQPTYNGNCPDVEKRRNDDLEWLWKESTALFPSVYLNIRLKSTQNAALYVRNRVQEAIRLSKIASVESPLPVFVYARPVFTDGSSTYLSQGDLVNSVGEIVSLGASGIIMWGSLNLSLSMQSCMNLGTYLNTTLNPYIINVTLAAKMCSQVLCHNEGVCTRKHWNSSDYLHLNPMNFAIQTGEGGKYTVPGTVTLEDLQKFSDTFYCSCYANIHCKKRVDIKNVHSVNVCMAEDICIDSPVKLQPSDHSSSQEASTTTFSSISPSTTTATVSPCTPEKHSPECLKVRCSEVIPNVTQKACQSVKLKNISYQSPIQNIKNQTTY
# A549 cells [3] = experiment: Reactive oxygen species assay (DCFH-DA), A549; format: cell-based, human; conditions: compound at IC50 24 h plus H2O2, H2O2 only 1.86-fold
# Description: After incubation, compounds were added into the wells and further incubated for next 24 h. H2O2 (1 mM) was added at 22nd h of incubation with compounds. H2O2 was used as a positive control. 30 min before the analysis, DCFH-DA (20 µM) was added to the wells. After incubation, cells were harvested and washed in PBS. Then, cells were centrifuged at 1500 rpm for 10 min. Medium was removed and cells were suspended in PBS. Analysis was performed on BD Accuri C6 Flow Cytometry (Becton–Dickinson).
# SH-SY5Y cells = experiment: Cytoprotection against H2O2 (100 µM), MTT; conditions: for Cells viability (%) ± SD after 24 h of incubation with compound and H2O2: H2O2 100 µM, H2O2 only 82.74%
# [4] = Homo sapiens, 24 h, read-out: Cells viability (%) ± SD after 24 h of incubation with compound and H2O2
SMILES,IC50 (A549 cells [1]) [µM],IC50 (EA.hy926 cells) [µM],Cleaved PARP-1 (89 kDa) level (in words) (PARP-1),IC50 [2] [µM],Increase in ROS level (DCF fluorescence) in comparison with non-treated control (A549 cells [3]) [fold],viability at 1 µM (SH-SY5Y cells; [4]) [%],"Neuroprotection against H2O2 (in words) (SH-SY5Y cells; H2O2 100 µM, 29.74, 14.87, 5.90 and 1 µM)",viability at 5.9 µM (SH-SY5Y cells; [4]) [%],viability at 14.87 µM (SH-SY5Y cells; [4]) [%],viability at 29.74 µM (SH-SY5Y cells; [4]) [%],"Cells viability (%) ± SD after 24 h of incubation with compound and H2O2 (SH-SY5Y cells; concentration: 1b 16.26, 1c 6.79, 1e 11.75, 1f 4.26, 1i 5.90 µM) [%]","Cells viability (%) ± SD after 24 h of incubation with compound and H2O2 (SH-SY5Y cells; concentration: 1b 65.04, 1c 27.16, 1e 46.98, 1f 17.04, 1i 29.74 µM) [%]"
O=C(NCCCNc1c2c(nc3ccccc13)CCCC2)c1cccc(I)c1 [Compound 1e],23.5 ± 2.6,11.7 ± 0.62,comparable apoptotic effect at their IC50 concentrations; also recorded: highest PARP-1 cleavage was observed for 1/2IC50 (11.75 µM),231 ± 5.64,1.98,89.8 ± 8.55,,,,,,
O=C(NCCCCNc1c2c(nc3ccccc13)CCCC2)c1ccc(I)cc1 [Compound 1i],14.9 ± 1.06,11.3 ± 0.89,highest effect,234 ± 8.98,1.98,29.7 ± 3.39,neuroprotection was not observed at any dose,25.9 ± 1.24,20.7 ± 1.45,18.7 ± 1.25,,
O=C(NCCCCNc1c2c(nc3ccccc13)CCCC2)c1ccccc1I [Compound 1c],59.1 ± 5.86,14.3 ± 1.65,,244 ± 7.95,,101 ± 1.19,,,,,,
O=C(NCCCNc1c2c(nc3ccccc13)CCCC2)c1ccccc1I [Compound 1b],32.5 ± 2.25,22.4 ± 2.3,comparable apoptotic effect at their IC50 concentrations,233 ± 4.87,1.98,99.2 ± 1.67,,,,,64.61 ± 4.88,17.21 ± 1.18

# Source: publication PMC6745035, “Novel tetrahydroacridine derivatives with iodobenzoic moieties induce G0/G1 cell cycle arrest and apoptosis in A549 non-small lung cancer and HT-29 colorectal cancer cells” (Molecular and Cellular Biochemistry, 2019)
